Test results as given in BindingDB's records for patent US20260070887 (Shenzhen Zhongge Biological Technology Co., 2026).

What follows are compounds tested against T1, Kinesin-like protein KIF18A (Homo sapiens, UniProt Q8NI77) (assay: Assay of the Inhibitory Effects on KIF18A Activity In Vitro (ADP-Glo Assay)).
T1 sequence (Q8NI77 whole entry): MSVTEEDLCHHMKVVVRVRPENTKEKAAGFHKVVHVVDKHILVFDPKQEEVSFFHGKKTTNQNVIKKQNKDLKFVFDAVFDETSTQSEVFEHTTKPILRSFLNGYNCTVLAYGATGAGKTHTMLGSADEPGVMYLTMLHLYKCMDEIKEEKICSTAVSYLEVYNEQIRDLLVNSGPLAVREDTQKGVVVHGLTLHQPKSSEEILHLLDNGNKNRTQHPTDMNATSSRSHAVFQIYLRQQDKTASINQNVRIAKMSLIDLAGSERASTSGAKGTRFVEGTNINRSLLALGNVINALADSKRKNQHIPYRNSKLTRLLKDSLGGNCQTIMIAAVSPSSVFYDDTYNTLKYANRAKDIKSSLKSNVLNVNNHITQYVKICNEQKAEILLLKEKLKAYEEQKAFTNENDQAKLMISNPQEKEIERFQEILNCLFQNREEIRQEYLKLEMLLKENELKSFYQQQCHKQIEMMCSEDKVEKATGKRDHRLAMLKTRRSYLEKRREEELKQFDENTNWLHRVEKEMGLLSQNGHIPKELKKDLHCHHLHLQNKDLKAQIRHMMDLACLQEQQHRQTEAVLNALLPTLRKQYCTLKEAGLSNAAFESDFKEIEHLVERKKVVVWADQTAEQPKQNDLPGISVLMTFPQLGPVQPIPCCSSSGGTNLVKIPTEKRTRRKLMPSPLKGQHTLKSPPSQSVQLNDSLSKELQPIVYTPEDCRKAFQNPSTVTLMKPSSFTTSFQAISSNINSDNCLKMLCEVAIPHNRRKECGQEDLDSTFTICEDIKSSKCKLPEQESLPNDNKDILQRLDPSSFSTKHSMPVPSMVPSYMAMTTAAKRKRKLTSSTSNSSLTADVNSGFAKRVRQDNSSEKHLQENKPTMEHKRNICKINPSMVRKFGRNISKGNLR
Procedure: Experimental Method 1. Preparation of 30 mL of reaction buffer: (1) 450 μL 1M Tris-HCl (pH=7.5)+300 μL 1M MgCl2+30 μL 10% Pluronic F-68 (ThermoFisher, 24040032-100 ml); (2) adjusting pH to 7.5, and adding water to adjust the volume to 30 mL. 2. Preparation of a 5 mg/mL pig microtubule (Microtubules; MT) (Cytoskeleton Inc, MT002) stock solution: (1) 10 mL PM buffer=150 μL 1 M PIPES (pH 7.0)+20 μL 0.5 mM MgCl2+100 μL 2 mM Taxol (Cytoskeleton Inc, TXD01)+9730 μL water. (2) MT (500 ag/tube): Adding 100 μL PM buffer to prepare a 5 mg/mL stock solution. Keeping the MT (Cytoskeleton Inc, MT002) at room temperature for 10-15 minutes, gently mixing and storing same at −80° C. 3. Preparation of 2 mL of kinase buffer: 2 mL reaction buffer+1 μL 2 mM Taxol (Cytoskeleton Inc, TXD01)+12 μL 5 mg/mL MT (Cytoskeleton Inc, MT002). 4. Preparation of 2×KIF18A (30 nM) (ChemPartner, CPB-P22-31645) working solution: 2.4 μL 10 μM KIF18A (ChemPartner, CPB-P22-31645)+800 μL 1× kinase buffer. 5. Preparation of 2×ATP (150 μM) (Promega, G9101) working solution: 12 μL 10 mM ATP+800 μL 1× kinase buffer. 6. 25 nL of compound was transferred to a 384-well plate using Echo650. 7. 2.5 μL of 2×KIF18A from Step 4 (final concentration of 30 nM) was added to the 384-well plate and the plate was incubated at 25° C. for 15 minutes. 8. 2.5 μL of 2×ATP from Step 5 (final concentration of 150 μM) was added to the 384-well plate and the plate was incubated at 25° C. for 15 minutes. 9. 5 μL ADP-Glo™ Reagent (Promega, G9101) was added to the 384-well plate and the plate was incubated at 25° C. for 40 minutes. 10. 10 μL of kinase detection reagent (Promega, G9101) was added to the 384-well plate and the plate was incubated at 25° C. for 40 minutes. 11. Luminescence values were measured using the EnVision Xcite Multilabel Reader (PerkinElmer, 2105-0020).

IC50 | SMILES
in the range around 275 nM | Nc1ccc(S(=O)(=O)Nc2ccc(C(=O)Nc3ccnc4c3CCN4CC3CC3)c(N3CCC4(CC3)CC4)c2)c(CCO)c1 [US20260070887, Example 32]
< 50 nM | Nc1ccc(S(=O)(=O)Nc2ccc(C(=O)Nc3ccnc4c3ccn4CC3CC3)c(N3CCC4(CC3)CC4)c2)c(CCO)c1 [US20260070887, Example 33]
< 50 nM | COc1ccc(C(=O)Nc2cccc3c2ccn3CC2CC2)c(N2CCC3(CC2)CC3)c1 [US20260070887, Example 127]
< 50 nM | COc1ccc(NC(=O)c2ccc(NS(=O)(=O)CCO)cc2N2CCC3(CC2)CC3)c2cc3n(c12)CCOC3 [US20260070887, Example 404]
< 50 nM | COC1c2cc3c(NC(=O)c4ccc(NS(=O)(=O)CCO)cc4N4CCC(=C(F)F)CC4)ccc(C#N)c3n2CCC1(F)F (centres undefined) [US20260070887, Example 427]
< 50 nM | CC1(C)Cn2c(cc3c(NC(=O)c4cnc(NS(=O)(=O)CCO)cc4N4CCC5(CC4)CC5)cccc32)CO1 [US20260070887, Example 454]
< 50 nM | COc1ccc(NC(=O)c2ccc(NS(=O)(=O)CCO)cc2N2CCC3(CC2)CC3)c2cc3n(c12)CCC(F)(F)C3 [US20260070887, Example 478]
in the range around 275 nM | CC1(C)Cn2c(cc3c(NC(=O)c4ccc(NS(=O)(=O)c5ccc(N)cc5CCO)cc4N4CCC5(CC4)CC5)ccc(F)c32)CO1 [US20260070887, Example 519]
< 50 nM | CC1(C)Cn2c(cc3c(NC(=O)c4ccc(NS(=O)(=O)CCO)cc4N4CCC(=C(F)F)CC4)ccc(Cl)c32)CO1 [US20260070887, Example 522]
